Measurements taken from ChEMBL document CHEMBL1201862, “PubChem BioAssay data set” (2004).
Calls of active or inactive are those of the source.

Tests used:
[1] = molecular target: T1, Zinc finger protein mex-5 (Caenorhabditis elegans, UniProt Q9XUB2); assay: potency of MEX-5 RNA-binding blockers – biochemical, C. elegans, fluorescence polarization, dose response (AID 1960)
T1 sequence (Q9XUB2 whole entry): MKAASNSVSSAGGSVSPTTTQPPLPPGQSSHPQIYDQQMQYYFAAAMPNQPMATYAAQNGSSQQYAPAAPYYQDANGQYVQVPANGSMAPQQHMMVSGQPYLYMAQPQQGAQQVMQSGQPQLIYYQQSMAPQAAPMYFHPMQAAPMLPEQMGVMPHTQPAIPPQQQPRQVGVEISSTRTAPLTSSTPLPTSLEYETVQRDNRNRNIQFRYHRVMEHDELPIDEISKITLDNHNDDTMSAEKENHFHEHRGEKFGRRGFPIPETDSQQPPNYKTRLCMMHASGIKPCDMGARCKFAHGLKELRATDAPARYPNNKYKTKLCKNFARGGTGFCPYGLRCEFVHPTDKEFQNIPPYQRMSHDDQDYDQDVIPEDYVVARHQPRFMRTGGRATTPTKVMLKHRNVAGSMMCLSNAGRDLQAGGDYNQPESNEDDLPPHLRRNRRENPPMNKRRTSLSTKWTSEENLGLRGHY

[2] = molecular target: T2, Mannose-6-phosphate isomerase (Homo sapiens, UniProt P34949); assay: MPI enzyme activity inhibition – biochemical, fluorescence intensity, coupled assay, primary screen (AID 1209)
T2 sequence (P34949 whole entry): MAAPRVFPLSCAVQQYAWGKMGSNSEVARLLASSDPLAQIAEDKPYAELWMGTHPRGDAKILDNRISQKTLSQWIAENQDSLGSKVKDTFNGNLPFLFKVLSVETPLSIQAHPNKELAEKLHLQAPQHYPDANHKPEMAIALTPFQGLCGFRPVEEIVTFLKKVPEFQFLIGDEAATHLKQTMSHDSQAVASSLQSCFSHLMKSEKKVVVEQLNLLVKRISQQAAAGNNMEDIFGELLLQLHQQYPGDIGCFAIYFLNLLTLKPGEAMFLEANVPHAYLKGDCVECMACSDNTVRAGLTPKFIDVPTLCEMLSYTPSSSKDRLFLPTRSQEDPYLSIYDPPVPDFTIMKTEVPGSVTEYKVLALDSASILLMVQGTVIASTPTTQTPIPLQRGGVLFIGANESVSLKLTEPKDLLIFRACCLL

[3] = mitochondrial function rescue without frataxin homolog – Friedreich's ataxia, plus single-dose screen, dose response (AID 1465); format: functional;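 note: yeast depleted of Yfh1p frataxin homolog grown on glycerol needing respiration; WST-1 tetrazolium dye reduction as measure of cellular dehydrogenase metabolic activity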
A-375 = assay: MITF: Counter assay: A375 proliferation Measured in Cell-Based System Using Plate Reader - 2084-03_Inhibitor_Dose_DryPowder_Activity. [Related pubchem assays (depositor defined):AID488944]; format: functional; settings: Homo sapiens
[4] = decrease of insulin promoter-GFP reporter – imaging, high-content screening, mouse beta cells (AID 1628); format: functional; settings: MIN6
[5] = loss of viability in HepG2 cells – cell-based, CellTiter-Glo, cherry-picked, cytotoxicity control for Shn3 inhibitor project, dose response (AID 624134); format: functional
Beta Lactamase = Beta Lactamase (Pseudomonas aeruginosa, UniProt Q932Y6); assay: BLA reporter interference, concentration series – BLA reporter cells, FRET fluorescence, artefact control for TLR9-MyD88 binding inhibitor project, dose response (AID 588341); format: cell-based;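 note: cell based assay in CHO-K1 cells stably expressing beta-lactamase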
Beta-galactosidase = Beta-galactosidase (Escherichia coli, UniProt Q8VNN2); format: functional
[6] = reduction of Shn3 3'UTR-driven luciferase in osteoblasts – cell-based, Clone20 osteoblasts, firefly luciferase, cherry-picked, dose response (AID 624132); format: functional;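 note: firefly luciferase luminescence from reporter carrying the Shn3 3'UTR in osteoblasts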
[7] = molecular target: Kappa-type opioid receptor (Homo sapiens, UniProt P41145); format: functional
SUMO E1/E2 = SUMO E1/E2 (Homo sapiens, UniProt P63279+Q9UBE0+Q9UBT2); assay: SAR analysis of SUMOylation using HTRF in an in-Vitro dose response assay. [Related pubchem assays (depositor defined):AID2006, AID2011, AID2018, AID2069, AID2658]; format: functional
[8] = molecular target: Peroxisome proliferator-activated receptor gamma/Nuclear receptor corepressor 2 (Homo sapiens, UniProt P37231+Q9Y618); format: functional
[9] = molecular target: 1-phosphatidylinositol 4,5-bisphosphate phosphodiesterase beta-3 (Homo sapiens, UniProt Q01970); assay: Fluorescence-based biochemical high throughput dose response assay to identify inhibitors of phospholipase C isozymes (PLC-B3).
Phospholipase A2 = Phospholipase A2 (Homo sapiens, UniProt P04054); format: functional;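 note: confirmatory dose-response counterscreen on phospholipase A2, testing hits that came from an ultra-high-throughput screen for ATG4B inhibitors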
Cysteine protease ATG4B = molecular target: T3, Cysteine protease ATG4B (Homo sapiens, UniProt Q9Y4P1); format: functional;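 note: Fluorescence-based dose-response confirmation assay measuring inhibition of ATG4B activity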
T3 sequence (Q9Y4P1 whole entry): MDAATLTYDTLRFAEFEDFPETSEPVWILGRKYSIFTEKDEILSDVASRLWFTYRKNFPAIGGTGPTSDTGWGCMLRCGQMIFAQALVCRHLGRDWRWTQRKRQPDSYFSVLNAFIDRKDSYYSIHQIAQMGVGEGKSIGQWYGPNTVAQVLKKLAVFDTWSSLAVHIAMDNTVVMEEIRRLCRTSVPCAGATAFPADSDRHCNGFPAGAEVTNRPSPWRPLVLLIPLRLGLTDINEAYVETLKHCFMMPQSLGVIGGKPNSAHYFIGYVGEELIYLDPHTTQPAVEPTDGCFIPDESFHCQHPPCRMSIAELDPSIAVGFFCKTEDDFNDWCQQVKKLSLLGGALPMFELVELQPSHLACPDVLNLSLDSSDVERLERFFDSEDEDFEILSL

[10] = blockers of HIV-1 ZM109 envelope-driven cell-cell fusion – HeLa effector, CEM target cells, luciferase, cherry-pick, dose response (AID 652058); format: functional, cell-based;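 note: luciferase signal from HIV-1 Env mediated cell-cell fusion of effector and target cells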
[11] = molecular target: 1-acylglycerol-3-phosphate O-acyltransferase ABHD5/Perilipin-5 (Homo sapiens, UniProt Q00G26+Q8WTS1); assay: Luminescence-based biochemical high throughput dose response assay for inhibitors of the interaction of the lipase co-activator protein, abhydrolase domain containing 5 (ABHD5) with perilipin-5 (MLDP; PLIN5) (2K validation set). [Related pubchem assays (depositor defined):AID493035, AID493241]
[12] = molecular target: Sphingosine 1-phosphate receptor 1 (Homo sapiens, UniProt P21453); format: functional;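 note: Tango beta-arrestin reporter U2OS cells stimulated with S1P near its EC80; inhibitor potency meaning antagonism of receptor activation by the natural agonist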
[13] = microbe, parasite or virus in culture; format: functional; settings: Mycobacterium tuberculosis
Perilipin-1/ABHD5 = Perilipin-1/ABHD5 (Homo sapiens, UniProt O60240+Q8WTS1); assay: Luminescence-based biochemical high throughput dose response assay for inhibitors of the interaction of the lipase co-activator protein, abhydrolase domain containing 5 (ABHD5) with perilipin-1 (PLIN1) (2K validation set). [Related pubchem assays (depositor defined):AID493027, AID493057]

Chain of 1-acylglycerol-3-phosphate O-acyltransferase ABHD5/Perilipin-5 (Q00G26 whole entry, the tested form may be a part): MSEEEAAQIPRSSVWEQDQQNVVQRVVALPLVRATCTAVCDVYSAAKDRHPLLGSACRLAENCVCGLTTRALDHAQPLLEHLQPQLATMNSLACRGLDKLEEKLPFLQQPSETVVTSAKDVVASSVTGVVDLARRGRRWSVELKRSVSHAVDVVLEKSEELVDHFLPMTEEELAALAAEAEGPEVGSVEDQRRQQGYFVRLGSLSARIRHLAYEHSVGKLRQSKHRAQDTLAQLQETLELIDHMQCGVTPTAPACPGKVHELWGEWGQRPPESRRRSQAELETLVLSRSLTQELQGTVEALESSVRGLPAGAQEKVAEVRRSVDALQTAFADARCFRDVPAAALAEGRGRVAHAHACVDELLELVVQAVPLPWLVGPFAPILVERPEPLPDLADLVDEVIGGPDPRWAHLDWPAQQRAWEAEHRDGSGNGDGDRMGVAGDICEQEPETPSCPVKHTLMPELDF
Chain of 1-acylglycerol-3-phosphate O-acyltransferase ABHD5/Perilipin-5 (Q8WTS1 whole entry, the tested form may be a part): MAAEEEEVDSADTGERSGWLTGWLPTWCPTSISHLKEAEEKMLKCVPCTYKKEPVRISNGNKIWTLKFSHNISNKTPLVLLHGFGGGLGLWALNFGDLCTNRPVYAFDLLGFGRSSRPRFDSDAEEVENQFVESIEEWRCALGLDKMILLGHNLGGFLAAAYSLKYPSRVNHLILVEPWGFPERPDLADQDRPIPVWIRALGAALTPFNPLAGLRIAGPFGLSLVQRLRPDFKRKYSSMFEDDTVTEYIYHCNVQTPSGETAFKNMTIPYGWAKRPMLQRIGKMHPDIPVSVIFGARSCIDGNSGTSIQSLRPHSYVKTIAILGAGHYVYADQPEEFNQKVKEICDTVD
Chain of Beta-galactosidase (Q8VNN2 whole entry): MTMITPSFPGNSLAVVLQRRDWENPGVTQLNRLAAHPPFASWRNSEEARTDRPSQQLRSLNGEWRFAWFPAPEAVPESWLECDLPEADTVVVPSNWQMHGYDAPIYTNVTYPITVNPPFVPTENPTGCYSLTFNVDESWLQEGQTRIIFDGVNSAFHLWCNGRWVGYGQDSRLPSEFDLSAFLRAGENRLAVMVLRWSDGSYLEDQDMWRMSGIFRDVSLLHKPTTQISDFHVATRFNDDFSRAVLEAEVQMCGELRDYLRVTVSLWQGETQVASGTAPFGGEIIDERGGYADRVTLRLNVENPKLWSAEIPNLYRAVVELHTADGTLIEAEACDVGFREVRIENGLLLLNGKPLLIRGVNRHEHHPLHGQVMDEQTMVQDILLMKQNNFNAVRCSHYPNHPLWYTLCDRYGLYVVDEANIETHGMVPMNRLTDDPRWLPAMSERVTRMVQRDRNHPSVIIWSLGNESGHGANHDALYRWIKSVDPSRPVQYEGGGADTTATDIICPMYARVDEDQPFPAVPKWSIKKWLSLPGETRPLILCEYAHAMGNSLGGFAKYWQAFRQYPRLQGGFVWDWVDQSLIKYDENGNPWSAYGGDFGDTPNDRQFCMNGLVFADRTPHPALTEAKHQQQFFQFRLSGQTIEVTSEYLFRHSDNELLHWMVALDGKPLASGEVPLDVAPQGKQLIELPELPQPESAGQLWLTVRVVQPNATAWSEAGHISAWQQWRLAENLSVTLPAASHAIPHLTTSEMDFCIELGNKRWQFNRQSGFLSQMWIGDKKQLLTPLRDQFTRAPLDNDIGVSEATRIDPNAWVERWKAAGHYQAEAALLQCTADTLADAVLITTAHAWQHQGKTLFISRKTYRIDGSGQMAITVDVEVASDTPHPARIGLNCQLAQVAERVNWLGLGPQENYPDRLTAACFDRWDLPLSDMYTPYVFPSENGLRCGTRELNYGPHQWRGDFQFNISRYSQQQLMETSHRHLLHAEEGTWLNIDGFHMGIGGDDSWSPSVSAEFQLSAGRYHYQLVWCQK
Chain of Peroxisome proliferator-activated receptor gamma/Nuclear receptor corepressor 2 (P37231 whole entry): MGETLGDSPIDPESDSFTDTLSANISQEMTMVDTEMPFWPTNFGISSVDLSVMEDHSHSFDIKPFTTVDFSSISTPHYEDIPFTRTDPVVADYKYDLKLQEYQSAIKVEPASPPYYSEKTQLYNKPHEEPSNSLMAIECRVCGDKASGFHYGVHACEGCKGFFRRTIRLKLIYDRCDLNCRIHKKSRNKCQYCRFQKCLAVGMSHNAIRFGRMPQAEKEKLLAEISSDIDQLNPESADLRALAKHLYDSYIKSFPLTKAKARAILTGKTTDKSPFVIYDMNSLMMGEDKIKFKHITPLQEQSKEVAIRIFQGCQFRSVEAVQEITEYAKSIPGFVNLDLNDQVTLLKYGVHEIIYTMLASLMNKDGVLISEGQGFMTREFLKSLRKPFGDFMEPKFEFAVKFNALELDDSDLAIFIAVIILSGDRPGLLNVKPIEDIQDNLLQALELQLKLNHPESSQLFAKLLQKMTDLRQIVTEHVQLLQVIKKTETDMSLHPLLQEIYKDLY
Chain of Peroxisome proliferator-activated receptor gamma/Nuclear receptor corepressor 2 (Q9Y618 whole entry): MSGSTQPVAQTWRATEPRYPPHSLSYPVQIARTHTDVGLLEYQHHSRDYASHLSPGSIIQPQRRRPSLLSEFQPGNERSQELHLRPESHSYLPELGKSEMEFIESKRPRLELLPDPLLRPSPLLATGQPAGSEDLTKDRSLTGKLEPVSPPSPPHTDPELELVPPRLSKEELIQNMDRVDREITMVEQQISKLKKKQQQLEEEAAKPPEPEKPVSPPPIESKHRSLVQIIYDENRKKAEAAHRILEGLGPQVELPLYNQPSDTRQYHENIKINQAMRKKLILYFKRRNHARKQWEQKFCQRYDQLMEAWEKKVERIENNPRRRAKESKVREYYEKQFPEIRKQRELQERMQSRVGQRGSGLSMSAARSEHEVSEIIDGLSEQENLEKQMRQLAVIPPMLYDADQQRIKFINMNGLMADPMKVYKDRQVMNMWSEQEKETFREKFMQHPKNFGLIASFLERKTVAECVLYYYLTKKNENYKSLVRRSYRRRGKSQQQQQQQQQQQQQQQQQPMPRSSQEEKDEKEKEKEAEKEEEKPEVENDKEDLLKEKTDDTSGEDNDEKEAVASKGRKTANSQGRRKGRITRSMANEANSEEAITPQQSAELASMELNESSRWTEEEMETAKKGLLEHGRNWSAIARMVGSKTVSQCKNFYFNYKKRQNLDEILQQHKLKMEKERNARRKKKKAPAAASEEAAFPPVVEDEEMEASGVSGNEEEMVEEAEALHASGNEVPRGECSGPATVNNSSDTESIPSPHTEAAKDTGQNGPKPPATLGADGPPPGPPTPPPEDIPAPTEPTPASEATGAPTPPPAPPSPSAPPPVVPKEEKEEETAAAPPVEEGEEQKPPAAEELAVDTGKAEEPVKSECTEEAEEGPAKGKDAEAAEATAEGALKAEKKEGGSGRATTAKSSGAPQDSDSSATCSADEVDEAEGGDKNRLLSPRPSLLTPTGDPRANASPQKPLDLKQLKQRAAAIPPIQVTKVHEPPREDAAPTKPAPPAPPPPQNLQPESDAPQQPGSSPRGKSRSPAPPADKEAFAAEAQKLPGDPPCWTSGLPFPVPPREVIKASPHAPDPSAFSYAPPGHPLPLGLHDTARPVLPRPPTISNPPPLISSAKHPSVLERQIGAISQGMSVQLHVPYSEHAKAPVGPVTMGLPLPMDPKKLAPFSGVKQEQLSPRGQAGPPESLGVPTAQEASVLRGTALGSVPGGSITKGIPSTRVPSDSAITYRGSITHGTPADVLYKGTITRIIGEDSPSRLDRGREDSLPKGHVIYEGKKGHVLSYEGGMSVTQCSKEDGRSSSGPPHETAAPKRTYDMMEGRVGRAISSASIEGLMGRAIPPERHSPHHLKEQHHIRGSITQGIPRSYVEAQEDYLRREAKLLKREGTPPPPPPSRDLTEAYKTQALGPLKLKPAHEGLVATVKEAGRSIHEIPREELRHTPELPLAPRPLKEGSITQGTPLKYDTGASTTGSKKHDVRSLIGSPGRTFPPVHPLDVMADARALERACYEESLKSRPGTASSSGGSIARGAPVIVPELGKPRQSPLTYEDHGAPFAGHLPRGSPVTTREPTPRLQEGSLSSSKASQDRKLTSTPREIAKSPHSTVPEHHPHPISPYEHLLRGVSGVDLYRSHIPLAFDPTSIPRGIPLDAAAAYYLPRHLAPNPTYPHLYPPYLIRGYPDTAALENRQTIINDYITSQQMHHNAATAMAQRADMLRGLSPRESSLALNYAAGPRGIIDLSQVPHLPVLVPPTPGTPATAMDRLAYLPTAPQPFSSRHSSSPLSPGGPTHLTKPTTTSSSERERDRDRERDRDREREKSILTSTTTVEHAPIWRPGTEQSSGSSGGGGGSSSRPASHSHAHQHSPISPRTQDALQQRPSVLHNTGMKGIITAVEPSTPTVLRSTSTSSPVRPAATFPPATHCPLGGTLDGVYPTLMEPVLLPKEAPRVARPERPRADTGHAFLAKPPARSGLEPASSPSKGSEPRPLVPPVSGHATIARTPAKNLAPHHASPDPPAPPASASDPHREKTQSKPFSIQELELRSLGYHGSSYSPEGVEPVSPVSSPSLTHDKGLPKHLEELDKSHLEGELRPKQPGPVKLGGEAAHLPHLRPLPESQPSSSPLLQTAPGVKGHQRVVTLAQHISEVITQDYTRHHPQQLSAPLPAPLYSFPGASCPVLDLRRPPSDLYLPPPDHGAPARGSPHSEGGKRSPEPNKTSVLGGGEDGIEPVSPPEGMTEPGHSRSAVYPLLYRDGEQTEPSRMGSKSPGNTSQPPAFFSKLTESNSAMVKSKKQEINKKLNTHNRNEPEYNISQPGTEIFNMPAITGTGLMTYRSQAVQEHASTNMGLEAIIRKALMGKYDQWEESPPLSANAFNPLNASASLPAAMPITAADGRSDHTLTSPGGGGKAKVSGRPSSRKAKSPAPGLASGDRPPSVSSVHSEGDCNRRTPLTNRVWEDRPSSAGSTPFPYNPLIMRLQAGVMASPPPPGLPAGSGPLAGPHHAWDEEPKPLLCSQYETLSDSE
Chain of Phospholipase A2 (P04054 whole entry): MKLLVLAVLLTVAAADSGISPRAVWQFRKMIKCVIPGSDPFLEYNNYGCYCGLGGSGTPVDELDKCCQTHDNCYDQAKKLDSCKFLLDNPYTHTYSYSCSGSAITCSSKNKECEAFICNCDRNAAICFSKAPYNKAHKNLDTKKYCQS

In the case of `O=C1c2cc(F)ccc2-n2c1nc1ccccc1c2=O`, the EC50 [1] is reported as > 300 µM (not active).

For `CCOC(=O)C1=C(c2ccc(OC)cc2)C(=O)c2ccccc2C1=O`, the IC50 [2] was 42.4 µM (active).

In the case of `O=C1C=C(N(CCO)Cc2ccccc2)c2ccccc2C1=O`, the EC50 [3] is reported as > 100 µM (active), the AC50 (A-375) is reported as 37.8 µM (active) and the IC50 [4] is reported as 5.11 µM (active).

In the case of `CCC(=O)OCCNc1cc(Sc2nccn2C)c2nonc2c1[N+](=O)[O-]`, the AC50 [5] is reported as 16.1 µM (active), the IC50 (Beta Lactamase) is reported as 8.31 µM (active) and the EC50 (Beta-galactosidase) is reported as > 31.5 µM (inactive). For the same compound, the AC50 [6] was 1.55 µM (active) and the IC50 [7] was 4.05 µM (active).

With `CCCCn1c(NC(=O)c2ccccc2Cl)c(C#N)c2nc3ccccc3nc21` the IC50 (SUMO E1/E2) was 10.9 µM (active).

For `O=C1C(=O)c2ccccc2-c2ccccc21` [9,10-PHENANTHRENEQUINONE], the IC50 [8] was 1.84 µM (active), the IC50 [9] was > 122 µM (inactive) and the IC50 (Phospholipase A2) was 42.8 µM (inactive). For the same compound, the IC50 (Cysteine protease ATG4B) was 1.25 µM (active), the AC50 [10] was 3.1 µM (active) and the IC50 [11] was 6.44 µM (active). The IC50 [12] was 5.02 µM (active), the CC50 [13] was 2.33 µM (active) and the IC50 (Perilipin-1/ABHD5) was 12.3 µM (inactive).
